Assay results from ChEMBL document CHEMBL5442168, “ASAP - In vitro liver microsomal stability” (2024).
Where “and” joins values, the source holds several entries; their conditions need not be identical. Identical values can stand only once.

Key:
[1] = (§1) Human liver microsomal stability of compound in microsomal protein, PBS buffer pH 7.4, NADPH, glucose-6-phosphate and glucose-6-phosphate dehydrogenase media. Aliquotes were taken at 5 time points and after stopping the reaction, supernatants were analyzed using HPLC coupled with a tandem mass spectrometer. The elimination constant, half-life, and intrinsic clearance are determined as results using linear regression analysis. The assay has been performed by Enamine biological services, Bienta Ltd.The protocol is publicly available: dx.doi.org/10.17504/protocols.io.5qpvokdb9l4o/v1; format: ADME, microsomes, Microsome; details: for half-life / microsomal CLint: liver microsomes; for Remaining / Remaining (without cofactor) / CLint / T1/2: microsomes
[2] = as §1, with “Mouse” for “Human”; format: ADME, microsomes, Microsome; details: for half-life / microsomal CLint: liver microsomes; for Remaining / Remaining (without cofactor) / CLint / T1/2: microsomes
Wherever Remaining (without cofactor) is given: time not given here.
Wherever Remaining is given: time not given here.

Row | Compound | half-life [1] [min] | microsomal CLint [1] [µL/min/mg] | Remaining [1] | Remaining (without cofactor) [1] | half-life [2] [min] | microsomal CLint [2] [µL/min/mg] | Remaining [2] | Remaining (without cofactor) [2] | CLint [1] [µL/min/mg] | T1/2 [1] [min] | CLint [2] [µL/min/mg] | T1/2 [2] [min]
1 | CC(C)[C@@H](Nc1ncnc2[nH]c(-c3cnn(C)c3)cc12)c1ccc2c(c1)S(=O)(=O)NCC2 | 13.9 | 120 | 13% | 98% | 19.1 | 87 | 23% | 92% | – | – | – | –
2 | CC(C)[C@H](Nc1ncnc2[nH]c(-c3cnn(C)c3C#N)cc12)c1ccc2c(n1)NC(=O)CO2 | 12.2 | 137 | 10% | 92% | 12.8 | 131 | 12% | 85% | – | – | – | –
3 | CC(C)[C@@H](Nc1ncnc2[nH]c(-c3cnn(CC(N)=O)c3)cc12)c1ccc2c(c1)NC(=O)CO2 | 99.2 | 17 | 73% | 91% | 156 | 11 | 84% | 102% | – | – | – | –
4 | CC(C)(C)[C@@H](Nc1ncnc2[nH]c(-c3cnn(CC(N)=O)c3)cc12)c1ccc2c(c1)OCCO2 | 12.6 | 133 | 11% and 18% | 87% and 109% | 35.2 | 47 | 46% and 54% | 107% and 106% | 100 | 16.8 | 39 | 43.1
5 | CNC(=O)c1cccc(-c2cc3c(N[C@H](c4ccc5c(c4)S(=O)(=O)CCC5)C(C)C)ncnc3[nH]2)c1 | 2.2 | 746 | 0% | 99% | 8.5 | 197 | 4% | 106% | – | – | – | –
6 | CC(C)[C@@H](Nc1ncnc2[nH]c(-c3cncc(S(C)(=O)=O)c3)cc12)c1ccc2c(c1)S(=O)(=O)CCC2 | 2.6 | 635 | 1% | 104% | 6.1 | 272 | 1% | 112% | – | – | – | –
7 | CC(C)[C@H](Nc1ncnc2[nH]c(-c3cnn(C)c3C#N)cc12)c1ccc2c(n1)OCCO2 | 100 | 17 | 78% | 116% | 20.7 | 81 | 27% | 96% | – | – | – | –
8 | CC(C)[C@H](Nc1ncnc2[nH]c(C(=O)N[C@@H]3CCN(C)C3)cc12)c1ccc2c(c1)S(=O)(=O)CCC2 | 627 | 3 | 98% | 100% | 649 | 3 | 104% | 107% | – | – | – | –
9 | Cc1nn(C)cc1-c1cc2c(N[C@H](c3ccc4c(c3)S(=O)(=O)CCC4)C(C)C)ncnc2[nH]1 | 6.1 | 273 | 1% | 113% | 8.3 | 202 | 4% | 104% | – | – | – | –
10 | CC(C)[C@H](Nc1ncnc2[nH]ccc12)c1ccc2c(c1)NC(=O)CO2 | 160 | 10 | 86% | 95% | 45.1 | 37 | 54% | 89% | – | – | – | –
11 | CNC(=O)c1cc2c(N[C@@H](c3ccc4c(c3)NC(=O)CO4)C(C)C)ncnc2[nH]1 | – | – | – | 94% and 96% | 84.4 | 20 | 71% and 57% | 103% and 99% | – | – | 33 | 51.2
12 | CC(C)[C@H](Nc1ncnc2[nH]ccc12)c1ccc2c(c1)S(=O)(=O)CCC2 | 29.5 | 57 | 37% | 92% | 8.1 | 207 | 3% | 104% | – | – | – | –
13 | CC(C)[C@@H](Nc1ncnc2[nH]c(C(=O)N[C@H]3CCN(C)C3)cc12)c1ccc2c(c1)S(=O)(=O)CCC2 | 64 | 26 | 66% | 107% | 434 | 4 | 92% | 92% | – | – | – | –
14 | CC(C)[C@@H](Nc1ncnc2[nH]c(-c3cnn(C)c3C#N)cc12)c1ccc2c(c1)OCCO2 | 22.6 | 74 | 25% and 46% | 111% and 101% | 7.7 | 218 | 3% and 13% | 97% and 106% | 47 | 35.4 | 129 | 13
15 | CC(C)[C@H](Nc1ncnc2[nH]c(-c3cnn(C)c3C#N)cc12)c1ccc2c(c1)OCCO2 | 2.4 | 706 | 1% | 103% | 6.5 | 257 | 2% | 113% | – | – | – | –

More lines, now with the values ahead:

Row | half-life [1] [min] | microsomal CLint [1] [µL/min/mg] | Remaining [1] | Remaining (without cofactor) [1] | half-life [2] [min] | microsomal CLint [2] [µL/min/mg] | Remaining [2] | Remaining (without cofactor) [2] | CLint [1] [µL/min/mg] | T1/2 [1] [min] | CLint [2] [µL/min/mg] | T1/2 [2] [min] | Compound
16 | 83.8 | 20 | 70% | 106% | 151 | 11 | 80% | 92% | – | – | – | – | CC(C)[C@@H](Nc1ncnc2[nH]c(C(=O)N[C@@H]3CCN(C)C3)cc12)c1ccc2c(c1)S(=O)(=O)CCC2
17 | 3.1 | 540 | 0% | 106% | 1.9 | 888 | 0% | 99% | – | – | – | – | COCCNC(=O)c1c[nH]c2ncnc(N[C@@H](c3ccc4c(c3)S(=O)(=O)CCC4)C(C)C)c12
18 | 26.2 | 64 | 33% | 95% | 65.5 | 26 | 66% | 99% | – | – | – | – | CCNC(=O)c1cc2c(N[C@@H](c3ccc4c(c3)S(=O)(=O)CCO4)C(C)C)ncnc2[nH]1
19 | 1090 | 2 | 105.597% | 84.68% | 206 | 7 | 115.387% | 100.411% | – | – | – | – | COc1ccc([C@H](Cc2nnn[nH]2)NC(=O)c2ncnc3[nH]ccc23)cc1
20 | 25 | 67 | 33% | 107% | 35.3 | 47 | 42% | 106% | – | – | – | – | CNC(=O)c1cc2c(N[C@H](c3ccc4c(c3)S(=O)(=O)CCC4)C(C)C)ncnc2[nH]1
21 | 15.4 | 109 | 17% | 102% | 26.3 | 64 | 34% | 97% | – | – | – | – | CCNC(=O)c1cc2c(N[C@H](c3ccc4c(c3)S(=O)(=O)CCC4)C(C)C)ncnc2[nH]1
22 | 3.4 | 490 | 1% and 0% | 94% and 101% | 3.8 | 440 | 0% | 96% and 106% | 516 | 3.2 | 709 | 2.4 | CC(C)[C@@H](Nc1ncnc2[nH]c(-c3cnn(C)c3C#N)cc12)c1ccc2c(c1)S(=O)(=O)CCC2
23 | 240 | 7 | 87% | 88% | 686 | 2 | 94% | 96% | – | – | – | – | COc1ccc([C@@H](CC(=O)O)NC(=O)c2ncnc3[nH]ccc23)cc1
24 | 19.5 | 86 | 23% | 98% | 14.8 | 113 | 16% | 95% | – | – | – | – | CNC(=O)c1c[nH]c2ncnc(N[C@@H](c3ccc4c(c3)NC(=O)CO4)C(C)C)c12
25 | 150 | 11 | 80% | 98% | 1540 | 1 | 98% | 97% | – | – | – | – | CC(C)[C@H](Nc1ncnc2[nH]c(C(=O)N[C@H]3CCN(C)C3)cc12)c1ccc2c(c1)S(=O)(=O)CCC2
26 | 10.9 | 153 | 9% | 100% | 38.3 | 44 | 48% | 105% | – | – | – | – | CC(C)(C)[C@H](Nc1ncnc2[nH]c(-c3cnn(CC(N)=O)c3)cc12)c1ccc2c(c1)OCCO2
27 | 134 | 12 | 85% | 90% | 359 | 5 | 99% | 110% | – | – | – | – | CC(C)[C@H](Nc1ncnc2[nH]c(-c3cnn(CC(N)=O)c3)cc12)c1ccc2c(n1)OCCO2
